Activity calls are given as the source filed them. Rule as the data show it, for most assays here: actives have a measured Kd and inactives only a lower limit.
Assays:
[1] = target: T1, Glycogen phosphorylase, liver form (Homo sapiens, UniProt P06737); format: subcellular, K-562, COLO 205, SK-N-BE(2) and MV-4-11, Cell lysate; conditions: read-out: Kd apparent
T1 sequence (P06737 whole entry): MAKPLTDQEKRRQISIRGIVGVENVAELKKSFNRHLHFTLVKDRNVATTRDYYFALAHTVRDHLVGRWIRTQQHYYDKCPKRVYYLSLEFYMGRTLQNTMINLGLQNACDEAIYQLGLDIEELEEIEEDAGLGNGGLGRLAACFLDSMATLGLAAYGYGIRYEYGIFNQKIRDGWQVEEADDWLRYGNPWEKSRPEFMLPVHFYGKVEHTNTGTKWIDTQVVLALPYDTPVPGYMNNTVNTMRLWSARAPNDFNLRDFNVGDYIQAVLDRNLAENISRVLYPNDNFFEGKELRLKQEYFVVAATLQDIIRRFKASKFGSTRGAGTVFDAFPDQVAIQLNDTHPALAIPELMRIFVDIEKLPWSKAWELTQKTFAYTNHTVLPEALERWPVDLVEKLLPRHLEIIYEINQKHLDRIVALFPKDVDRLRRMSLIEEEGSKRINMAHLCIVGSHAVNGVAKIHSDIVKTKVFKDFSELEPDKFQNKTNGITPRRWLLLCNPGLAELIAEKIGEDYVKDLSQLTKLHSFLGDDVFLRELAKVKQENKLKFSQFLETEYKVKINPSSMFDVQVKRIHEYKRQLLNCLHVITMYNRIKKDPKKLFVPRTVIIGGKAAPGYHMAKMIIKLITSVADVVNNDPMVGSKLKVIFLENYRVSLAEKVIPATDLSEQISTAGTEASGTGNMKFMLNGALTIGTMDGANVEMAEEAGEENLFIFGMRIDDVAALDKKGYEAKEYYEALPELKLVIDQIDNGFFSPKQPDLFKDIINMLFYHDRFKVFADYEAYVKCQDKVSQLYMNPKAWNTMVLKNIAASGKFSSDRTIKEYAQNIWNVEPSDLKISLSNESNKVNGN

[2] = target: Tyrosine-protein kinase JAK1 (Homo sapiens, UniProt P23458)
Chain of Tyrosine-protein kinase JAK1 (P23458 whole entry): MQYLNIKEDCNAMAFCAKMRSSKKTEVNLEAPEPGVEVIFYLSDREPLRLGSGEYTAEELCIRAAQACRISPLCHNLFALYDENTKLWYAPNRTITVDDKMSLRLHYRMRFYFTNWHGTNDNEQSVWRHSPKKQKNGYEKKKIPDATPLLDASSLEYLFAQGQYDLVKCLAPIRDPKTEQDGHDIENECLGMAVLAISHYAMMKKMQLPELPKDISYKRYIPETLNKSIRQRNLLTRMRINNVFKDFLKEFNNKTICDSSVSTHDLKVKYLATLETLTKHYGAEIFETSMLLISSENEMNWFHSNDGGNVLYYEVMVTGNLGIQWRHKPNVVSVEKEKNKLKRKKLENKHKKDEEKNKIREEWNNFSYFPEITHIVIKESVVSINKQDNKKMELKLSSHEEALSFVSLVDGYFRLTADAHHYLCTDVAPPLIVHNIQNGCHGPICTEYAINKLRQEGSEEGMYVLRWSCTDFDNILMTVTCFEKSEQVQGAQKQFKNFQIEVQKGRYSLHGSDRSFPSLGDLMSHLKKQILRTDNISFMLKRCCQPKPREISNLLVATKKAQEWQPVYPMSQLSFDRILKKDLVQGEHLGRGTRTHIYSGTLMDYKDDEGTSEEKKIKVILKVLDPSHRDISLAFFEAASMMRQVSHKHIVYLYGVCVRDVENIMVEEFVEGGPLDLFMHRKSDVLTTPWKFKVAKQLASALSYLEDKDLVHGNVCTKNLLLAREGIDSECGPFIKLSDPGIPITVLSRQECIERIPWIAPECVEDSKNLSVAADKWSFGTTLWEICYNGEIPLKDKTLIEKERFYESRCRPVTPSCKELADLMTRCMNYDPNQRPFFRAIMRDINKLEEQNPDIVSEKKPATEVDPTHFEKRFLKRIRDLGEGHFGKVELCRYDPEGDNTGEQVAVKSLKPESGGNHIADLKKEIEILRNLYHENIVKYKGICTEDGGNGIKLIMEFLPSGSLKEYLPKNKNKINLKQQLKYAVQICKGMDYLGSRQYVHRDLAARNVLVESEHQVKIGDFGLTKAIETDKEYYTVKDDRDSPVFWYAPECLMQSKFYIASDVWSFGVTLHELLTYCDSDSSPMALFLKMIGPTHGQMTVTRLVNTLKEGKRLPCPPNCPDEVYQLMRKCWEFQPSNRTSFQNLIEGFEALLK

[3] = target: T2, DNA replication licensing factor MCM4 (Homo sapiens, UniProt P33991)
T2 sequence (P33991 whole entry): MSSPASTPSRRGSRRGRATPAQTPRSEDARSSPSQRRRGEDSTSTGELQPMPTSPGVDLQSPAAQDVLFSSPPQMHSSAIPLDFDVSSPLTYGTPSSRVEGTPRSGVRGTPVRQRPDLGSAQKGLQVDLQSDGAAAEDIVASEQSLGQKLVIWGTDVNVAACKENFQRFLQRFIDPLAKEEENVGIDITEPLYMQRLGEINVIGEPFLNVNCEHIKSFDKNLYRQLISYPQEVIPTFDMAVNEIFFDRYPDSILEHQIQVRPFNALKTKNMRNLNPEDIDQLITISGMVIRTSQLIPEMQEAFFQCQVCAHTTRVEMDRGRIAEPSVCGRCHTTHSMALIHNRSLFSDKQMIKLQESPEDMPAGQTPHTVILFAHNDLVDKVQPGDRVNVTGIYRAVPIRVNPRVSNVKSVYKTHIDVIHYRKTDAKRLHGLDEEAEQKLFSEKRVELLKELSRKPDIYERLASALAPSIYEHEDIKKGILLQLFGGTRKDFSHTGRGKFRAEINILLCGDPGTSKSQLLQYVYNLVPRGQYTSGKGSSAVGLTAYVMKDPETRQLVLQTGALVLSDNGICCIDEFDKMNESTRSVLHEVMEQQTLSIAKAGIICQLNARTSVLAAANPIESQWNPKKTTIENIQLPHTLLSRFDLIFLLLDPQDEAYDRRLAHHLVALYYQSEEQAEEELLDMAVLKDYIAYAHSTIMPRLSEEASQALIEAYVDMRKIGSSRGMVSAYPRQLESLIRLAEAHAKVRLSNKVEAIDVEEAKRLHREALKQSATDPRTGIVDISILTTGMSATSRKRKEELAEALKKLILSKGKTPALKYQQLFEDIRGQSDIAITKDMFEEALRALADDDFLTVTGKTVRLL

TGF-beta receptor type-2 = TGF-beta receptor type-2 (Homo sapiens, UniProt P37173)
Chain of TGF-beta receptor type-2 (P37173 whole entry): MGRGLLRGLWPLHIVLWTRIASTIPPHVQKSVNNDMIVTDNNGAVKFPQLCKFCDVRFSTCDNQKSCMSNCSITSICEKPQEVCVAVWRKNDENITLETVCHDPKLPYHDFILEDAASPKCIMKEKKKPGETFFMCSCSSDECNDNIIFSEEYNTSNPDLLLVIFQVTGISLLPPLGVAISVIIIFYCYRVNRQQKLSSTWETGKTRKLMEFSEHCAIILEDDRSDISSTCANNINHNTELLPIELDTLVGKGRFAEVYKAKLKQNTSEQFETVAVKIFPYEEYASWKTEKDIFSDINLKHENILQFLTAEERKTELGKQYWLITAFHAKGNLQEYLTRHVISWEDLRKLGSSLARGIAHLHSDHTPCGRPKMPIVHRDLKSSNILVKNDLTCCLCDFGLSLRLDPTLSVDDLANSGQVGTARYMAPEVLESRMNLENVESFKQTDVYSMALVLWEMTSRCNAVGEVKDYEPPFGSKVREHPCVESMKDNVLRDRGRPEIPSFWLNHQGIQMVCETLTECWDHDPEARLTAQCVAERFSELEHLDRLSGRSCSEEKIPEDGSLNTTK

[4] = target: T3, Non-receptor tyrosine-protein kinase TNK1 (Homo sapiens, UniProt Q13470)
T3 sequence (Q13470 whole entry): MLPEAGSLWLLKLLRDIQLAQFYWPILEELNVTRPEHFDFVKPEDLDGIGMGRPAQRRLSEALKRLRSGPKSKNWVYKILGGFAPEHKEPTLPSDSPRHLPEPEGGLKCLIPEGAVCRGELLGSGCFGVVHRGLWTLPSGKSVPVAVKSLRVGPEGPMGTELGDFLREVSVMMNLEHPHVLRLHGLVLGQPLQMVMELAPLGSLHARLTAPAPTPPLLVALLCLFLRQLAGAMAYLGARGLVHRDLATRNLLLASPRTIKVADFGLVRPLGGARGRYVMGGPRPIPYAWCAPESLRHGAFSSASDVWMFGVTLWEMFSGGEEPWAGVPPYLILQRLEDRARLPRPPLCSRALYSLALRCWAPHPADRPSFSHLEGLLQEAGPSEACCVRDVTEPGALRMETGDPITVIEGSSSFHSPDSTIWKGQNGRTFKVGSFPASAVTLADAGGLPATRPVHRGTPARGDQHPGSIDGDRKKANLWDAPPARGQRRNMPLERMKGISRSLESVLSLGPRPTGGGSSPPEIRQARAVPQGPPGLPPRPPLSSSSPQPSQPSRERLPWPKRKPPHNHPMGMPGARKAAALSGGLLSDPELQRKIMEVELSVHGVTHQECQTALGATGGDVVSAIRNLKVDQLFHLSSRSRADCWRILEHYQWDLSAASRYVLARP

[5] = target: Mitotic checkpoint serine/threonine-protein kinase BUB1 (Homo sapiens, UniProt O43683)
Chain of Mitotic checkpoint serine/threonine-protein kinase BUB1 (O43683 whole entry): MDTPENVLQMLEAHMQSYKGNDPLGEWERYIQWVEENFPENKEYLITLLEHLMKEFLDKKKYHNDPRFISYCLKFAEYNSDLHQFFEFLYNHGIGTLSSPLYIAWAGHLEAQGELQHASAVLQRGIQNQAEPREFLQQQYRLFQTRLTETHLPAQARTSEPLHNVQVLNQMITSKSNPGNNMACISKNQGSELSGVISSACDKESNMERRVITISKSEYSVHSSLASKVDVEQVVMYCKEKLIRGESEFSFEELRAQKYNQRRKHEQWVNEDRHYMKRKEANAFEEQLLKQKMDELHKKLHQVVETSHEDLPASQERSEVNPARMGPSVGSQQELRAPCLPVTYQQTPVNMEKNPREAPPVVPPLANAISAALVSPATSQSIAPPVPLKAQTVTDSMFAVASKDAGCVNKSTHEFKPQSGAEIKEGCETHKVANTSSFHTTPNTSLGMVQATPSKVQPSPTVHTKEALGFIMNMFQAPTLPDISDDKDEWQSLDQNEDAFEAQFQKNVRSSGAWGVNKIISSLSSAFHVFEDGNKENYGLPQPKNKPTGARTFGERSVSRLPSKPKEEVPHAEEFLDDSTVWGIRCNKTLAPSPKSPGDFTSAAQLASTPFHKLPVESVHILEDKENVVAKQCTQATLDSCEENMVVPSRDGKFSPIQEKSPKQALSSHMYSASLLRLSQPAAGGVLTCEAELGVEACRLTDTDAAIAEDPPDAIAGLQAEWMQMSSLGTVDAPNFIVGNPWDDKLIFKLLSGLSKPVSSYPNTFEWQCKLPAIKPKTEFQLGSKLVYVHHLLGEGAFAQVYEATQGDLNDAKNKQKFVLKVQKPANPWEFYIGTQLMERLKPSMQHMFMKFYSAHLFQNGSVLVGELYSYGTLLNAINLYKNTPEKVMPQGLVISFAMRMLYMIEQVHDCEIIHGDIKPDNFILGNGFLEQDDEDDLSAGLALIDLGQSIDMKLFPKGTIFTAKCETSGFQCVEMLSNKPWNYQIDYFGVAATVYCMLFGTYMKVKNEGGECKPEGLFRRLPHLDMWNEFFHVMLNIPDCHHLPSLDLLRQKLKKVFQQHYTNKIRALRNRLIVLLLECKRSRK

[6] = target: Calcium/calmodulin-dependent protein kinase kinase 2 (Homo sapiens, UniProt Q96RR4)
Chain of Calcium/calmodulin-dependent protein kinase kinase 2 (Q96RR4 whole entry): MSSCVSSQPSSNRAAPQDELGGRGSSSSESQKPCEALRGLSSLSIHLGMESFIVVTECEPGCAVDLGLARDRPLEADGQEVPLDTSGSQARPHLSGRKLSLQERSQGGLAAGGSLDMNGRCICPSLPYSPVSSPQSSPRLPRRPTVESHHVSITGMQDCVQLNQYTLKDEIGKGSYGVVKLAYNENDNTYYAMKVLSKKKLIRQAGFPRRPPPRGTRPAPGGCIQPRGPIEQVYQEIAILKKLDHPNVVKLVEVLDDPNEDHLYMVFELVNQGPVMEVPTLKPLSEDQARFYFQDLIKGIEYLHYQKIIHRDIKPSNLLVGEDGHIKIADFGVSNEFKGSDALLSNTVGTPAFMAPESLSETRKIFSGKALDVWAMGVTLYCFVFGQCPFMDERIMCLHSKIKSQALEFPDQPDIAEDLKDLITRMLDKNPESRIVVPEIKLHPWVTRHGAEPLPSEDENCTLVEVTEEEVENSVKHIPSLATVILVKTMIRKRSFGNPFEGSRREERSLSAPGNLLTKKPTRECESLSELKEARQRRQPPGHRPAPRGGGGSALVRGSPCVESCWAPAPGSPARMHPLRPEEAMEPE
Also: in the data inactive means no Kd found up to 30 µM.

| Kd [1] | Kd [2] | Kd [3] | Kd (TGF-beta receptor type-2) | Kd [4] | Kd [5] | Kd [6] | SMILES |
| --- | --- | --- | --- | --- | --- | --- | --- |
| > 30 µM (inactive) | > 30 µM (inactive) | > 30 µM (inactive) | > 30 µM (inactive) | > 30 µM (inactive) | > 30 µM (inactive) | > 30 µM (inactive) | O=C(NC[C@H](O)CO)c1ccncc1Nc1ccc(I)cc1F [PIMASERTIB] |
| > 30 µM (inactive) | > 30 µM (inactive) | > 30 µM (inactive) | > 30 µM (inactive) | > 30 µM (inactive) | > 30 µM (inactive) | > 30 µM (inactive) | O=C(Nc1ccc(OC(F)(F)F)cc1)c1sccc1NCc1ccnc2ccccc12 [OSI-930] |
| > 30 µM (inactive) | > 30 µM (inactive) | > 30 µM (inactive) | > 30 µM (inactive) | > 30 µM (inactive) | > 30 µM (inactive) | > 30 µM (inactive) | O=C(NOC[C@H](O)CO)c1ccc(F)c(F)c1Nc1ccc(I)cc1F [MIRDAMETINIB] |
| > 30 µM (inactive) | > 30 µM (inactive) | > 30 µM (inactive) | > 30 µM (inactive) | 0.16 µM (active) | > 30 µM (inactive) | > 30 µM (inactive) | COc1cc(Nc2ncc(F)c(Nc3ccc4c(n3)N(COP(=O)(O)O)C(=O)C(C)(C)O4)n2)cc(OC)c1OC [FOSTAMATINIB] |
| > 30 µM (inactive) | > 30 µM (inactive) | > 30 µM (inactive) | > 30 µM (inactive) | > 30 µM (inactive) | > 30 µM (inactive) | > 30 µM (inactive) | CNC(=O)c1cc(COc2nnc(Nc3ccc(Cl)cc3)c3ccoc23)ccn1 [TELATINIB] |
| > 30 µM (inactive) |  | > 30 µM (inactive) |  |  | > 30 µM (inactive) |  | COc1cc2c(N3CCN(C(=O)Nc4ccc(OC(C)C)cc4)CC3)ncnc2cc1OCCCN1CCCCC1 [TANDUTINIB] |
| > 30 µM (inactive) | > 30 µM (inactive) | > 30 µM (inactive) | > 30 µM (inactive) | 0.289 µM (active) |  | > 30 µM (inactive) | C=CC(=O)Nc1cccc(Nc2nc(Nc3ccc(N4CCN(C(C)=O)CC4)cc3OC)ncc2C(F)(F)F)c1 [ROCILETINIB] |
| > 30 µM (inactive) | > 30 µM (inactive) | > 30 µM (inactive) | > 30 µM (inactive) | > 30 µM (inactive) |  | > 30 µM (inactive) | O=C(O)c1ccc2c(c1)nc(Nc1cccc(Cl)c1)c1ccncc12 [SILMITASERTIB] |
| > 30 µM (inactive) |  | > 30 µM (inactive) |  |  | > 30 µM (inactive) |  | CC1(C)CNc2cc(NC(=O)c3cccnc3NCc3ccncc3)ccc21 [MOTESANIB] |
| > 30 µM (inactive) |  | > 30 µM (inactive) |  |  | > 30 µM (inactive) |  | Cn1cnc2c(F)c(Nc3ccc(Br)cc3Cl)c(C(=O)NOCCO)cc21 [SELUMETINIB] |

Further lines, the compound ahead of its results:

| SMILES | Kd [1] | Kd [2] | Kd [3] | Kd (TGF-beta receptor type-2) | Kd [4] | Kd [5] | Kd [6] |
| --- | --- | --- | --- | --- | --- | --- | --- |
| CCN(CCCOc1ccc2c(Nc3cc(CC(=O)Nc4cccc(F)c4)n[nH]3)ncnc2c1)CCOP(=O)(O)O [BARASERTIB] | > 30 µM (inactive) | > 30 µM (inactive) | > 30 µM (inactive) | > 30 µM (inactive) | > 30 µM (inactive) |  |  |
| COc1cc2c(Oc3ccc4[nH]c(C)cc4c3F)ncnc2cc1OCCCN1CCCC1 [CEDIRANIB] | > 30 µM (inactive) |  | > 30 µM (inactive) |  |  | > 30 µM (inactive) |  |
| COc1ccc(-c2ccc3ncc4c(c3c2)n(-c2ccc(N3CCNCC3)c(C(F)(F)F)c2)c(=O)n4C)cn1 [BGT-226 FREE BASE] | > 30 µM (inactive) | > 30 µM (inactive) | > 30 µM (inactive) | > 30 µM (inactive) | > 30 µM (inactive) | > 30 µM (inactive) | > 30 µM (inactive) |
| S=C(NCc1ccc2c(c1)OCO2)N1CCN(c2ncnc3c2oc2ccccc23)CC1 [AMUVATINIB] | > 30 µM (inactive) | > 30 µM (inactive) | > 30 µM (inactive) |  | > 30 µM (inactive) | > 30 µM (inactive) | > 30 µM (inactive) |
| N#CCNC(=O)c1ccc(-c2ccnc(Nc3ccc(N4CCOCC4)cc3)n2)cc1 [MOMELOTINIB] | > 30 µM (inactive) |  | > 30 µM (inactive) | > 30 µM (inactive) | > 30 µM (inactive) | > 30 µM (inactive) | > 30 µM (inactive) |
| CN(c1ncccc1CNc1nc(Nc2ccc3c(c2)CC(=O)N3)ncc1C(F)(F)F)S(C)(=O)=O [PF-00562271] | > 30 µM (inactive) | > 30 µM (inactive) | > 30 µM (inactive) | > 30 µM (inactive) | > 30 µM (inactive) | > 30 µM (inactive) |  |
| NC[C@@](O)(c1ccc(Cl)cc1)c1ccc(-c2cn[nH]c2)cc1 [AT-13148] | > 30 µM (inactive) | > 30 µM (inactive) | > 30 µM (inactive) |  | > 30 µM (inactive) |  | > 30 µM (inactive) |
| C=CCN(/C=C1/C(=O)O[C@H](COC)[C@@]2(C)C1=C(O)C(=O)C1=C2[C@H](OC(C)=O)C[C@]2(C)C(=O)CC[C@@H]12)CC=C [SONOLISIB] | > 30 µM (inactive) | > 30 µM (inactive) |  | > 30 µM (inactive) | > 30 µM (inactive) |  | > 30 µM (inactive) |
| C[C@@]1(C(=O)Nc2ccc(F)nc2)CCCN1c1nc(Nc2cc(C3CC3)n[nH]2)c2cccn2n1 [BMS-754807] | > 30 µM (inactive) |  | > 30 µM (inactive) |  |  |  |  |
| CCOc1ccn(-c2ccc(F)cc2)c(=O)c1C(=O)Nc1ccc(Oc2ccnc(N)c2Cl)c(F)c1 [BMS-777607] | > 30 µM (inactive) | > 30 µM (inactive) | > 30 µM (inactive) | > 30 µM (inactive) | > 30 µM (inactive) |  | > 30 µM (inactive) |
| Cn1cc(-c2[nH]c3cc(NC(=O)[C@H](N)C4CCCCC4)cc4c3c2C=NNC4=O)cn1 | > 30 µM (inactive) |  | > 30 µM (inactive) | 0.146 µM (active) | > 30 µM (inactive) | > 30 µM (inactive) | > 30 µM (inactive) |
| C=CC(=O)Nc1cc(Nc2nccc(-c3cn(C)c4ccccc34)n2)c(OC)cc1N(C)CCN(C)C [OSIMERTINIB] | > 30 µM (inactive) | > 30 µM (inactive) | > 30 µM (inactive) |  | > 30 µM (inactive) | > 30 µM (inactive) | > 30 µM (inactive) |
| CN(C)C/C=C/C(=O)Nc1cc2c(Nc3ccc(F)c(Cl)c3)ncnc2cc1O[C@H]1CCOC1 [AFATINIB] | > 30 µM (inactive) |  | > 30 µM (inactive) |  |  | > 30 µM (inactive) |  |

Source: ChEMBL document CHEMBL3991601, “The target landscape of clinical kinase drugs” (Science, 2017)
